From US6951881B2, “(1-substituted-indol-3-yl) alkylidenehydrazinecarboximidamide derivatives as 5-hydroxytryptamine-6 ligands” (Wyeth, priority 2002, dated 2005) come the findings set out here.

The target of the assay is T1, human cloned 5-HT6 receptors (Homo sapiens, UniProt P50406).
T1 construct: expressed in transfected cells; host or cells: HeLa cells
It is filed as binding. To be noted: for % Inhibition / inhibition at 1 µM: test compound dose 1000 nM; for Ki: [3H]-LSD 3.0 nM, Hela cell membranes, read-out: 5-HT6 Binding Ki. The protocol: This operation is repeated.
The reaction is allowed to proceed in the dark for 120 min at room temperature, at which time, the bound ligand-receptor complex is filtered off on a 96 well unifilter with a Packard Filtermate® 196 Harvester. The bound complex caught on the filter disk is allowed to air dry and the radioactivity is measured in a Packard TopCount® equipped with six photomultiplier detectors, after the addition of 40.0 μl Microscint®-20 scintillant to each shallow well. The unifilter plate is heat-sealed and counted in a PackardTopCount® with a tritium efficiency of 31.0%.
Specific binding to the 5-HT6 receptor is defined as the total radioactivity bound less the amount bound in the presence of 10.0 μM unlabeled methiothepin. Binding in the presence of varying concentrations of test compound is expressed as a percentage of specific binding in the absence of test compound. The results are plotted as logit % bound versus log concentration of test compound. Nonlinear regression analysis of data points with a computer assisted program Prism® yields both the IC50 and the Ki values of test compounds with 95% confidence limits.
The amount of displacement by the test compound is given in percent (%) inhibition and is derived from the following equation: [formula] where B0 is the amount of CPM bound in the presence of the testing agent. NSB represents the CPM bound in the presence of a saturating concentration of a displacer and TB represents the total amount of CPM bound at zero (0) concentration of test compound.
Alternatively, a linear regression line of decline of data points is plotted, from which the IC50 value can be read off and the Ki value determined by solving the following equation: [formula] where L is the concentration of the radioactive ligand used and KD is the dissociation constant of the ligand for the receptor, both expressed in nM.

T1 sequence (P50406 whole entry): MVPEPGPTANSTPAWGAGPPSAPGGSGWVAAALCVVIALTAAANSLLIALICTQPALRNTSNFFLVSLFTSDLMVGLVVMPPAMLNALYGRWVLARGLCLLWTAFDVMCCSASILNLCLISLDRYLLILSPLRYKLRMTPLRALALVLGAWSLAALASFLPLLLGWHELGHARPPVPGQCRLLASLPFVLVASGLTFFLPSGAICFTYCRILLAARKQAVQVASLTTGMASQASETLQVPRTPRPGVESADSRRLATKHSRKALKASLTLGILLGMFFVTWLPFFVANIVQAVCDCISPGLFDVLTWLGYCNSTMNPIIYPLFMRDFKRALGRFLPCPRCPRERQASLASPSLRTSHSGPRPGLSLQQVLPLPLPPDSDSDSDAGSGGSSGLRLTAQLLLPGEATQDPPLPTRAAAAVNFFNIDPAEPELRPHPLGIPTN

As usually defined, the % Inhibition is the change of the read-out against control, counted positive when it falls. In the case of `CN(N=C(c1ccc(Cl)cc1)c1c(-c2ccc(Cl)cc2)[nH]c2ccccc12)C1=NCCN1` [Example 67, N′-{(4-chlorophenyl)-[2-(4-chlorophenyl)-1H-indol-3-yl]-methylene}-N-(4,5,-dihydro-1H-imidazol-2-yl)-N-methylhydrazine], the “% Inhibition” value (displacement of [3H]-LSD) amounted to 35.2%.

The inhibition is how much of the control response was suppressed. Read a low inhibition as a response near the control. Regarding `CC(C)=CC(=NN(C)C1=NCCN1)c1c(-c2ccccc2)[nH]c2ccccc12` [Example 68, N-(4,5-dihydro-1H-imidazol-2-yl)-N-methyl-N′-[3-methyl-1-(2-phenyl-1H-indol-3-yl)-but-2-enylidene]hydrazine], at 1 µM the inhibition (displacement of [3H]-LSD) was 24.8%.

`CN(N=C(CCc1ccccc1)c1c(-c2ccccc2)[nH]c2ccccc12)C1=NCCN1` [Example 69, N-(4,5-dihydro-1H-imidazol-2-yl)-N-methyl-N′-[3-phenyl-1-(2-phenyl-1H-indol-3-yl)-propylidene]hydrazine]: under “displacement of [3H]-LSD”, testing at 1 µM gave an inhibition of 23%.

As for `CN(N=C(CCc1ccccc1)c1c(-c2ccc(Cl)cc2)[nH]c2ccccc12)C1=NCCN1` [Example 70, N′-{1-[2-(4-chloro-phenyl)-1H-indol-3-yl]-3-phenyl-propylidene}-N-(4,5-dihydro-1H-imidazol-2-yl)-N-methylhydrazine], at 1 µM the inhibition (displacement of [3H]-LSD) was 33.9%.

In turn, `CN(N=C(C=Cc1ccccc1)c1c(-c2ccccc2)[nH]c2ccccc12)C1=NCCN1` [Example 71, N-(4,5-dihydro-1H-imidazol-2-yl)-N-methyl-N′-[3-phenyl-1-(2-phenyl-1H-indol-3-yl)-allylidene]hydrazine] returned an inhibition at 1 µM (displacement of [3H]-LSD) of 30%.

`CN(N=C(C=Cc1ccccc1)c1c(-c2ccc(Cl)cc2)[nH]c2ccccc12)C1=NCCN1` [Example 72, N′-{1-[2-(4-chloro-phenyl)-1H-indol-3-yl]-3-phenyl-allylidene}-N-(4,5-dihydro-1H-imidazol-2-yl)-N-methylhydrazine] displayed an inhibition at 1 µM (displacement of [3H]-LSD) of 40.9%.

Take `CN(N=C(Cc1ccc(Cl)cc1)c1c(-c2ccc(Cl)cc2)[nH]c2ccccc12)C1=NCCN1` [Example 73, N′-{2-(4-chloro-phenyl)-1-[2-(4-chloro-phenyl)-1H-indol-3-yl]-ethylidene}-N-(4,5-dihydro-1H-imidazol-2-yl)-N-methylhydrazine]: the inhibition at 1 µM (displacement of [3H]-LSD) was 37.5%.

As for `CC(=NNC(=N)N)c1c(-c2ccc(F)cc2)[nH]c2ccccc12` [Example 74, 2-{1-[2-(4-fluoro-phenyl)-1H-indol-3-yl]-ethylidene}hydrazinecarboximidamide], the inhibition at 0.01 µM (test compound dose 10 nM, displacement of [3H]-LSD) stood at 38.3%.

As for `CC(=NNC(=N)N)c1c(-c2ccc(F)c(F)c2)[nH]c2ccccc12` [Example 75, 2-{1-[2-(3,4-difluoro-phenyl)-1H-indol-3-yl]-ethylidene}hydrazinecarboximidamide], the inhibition at 1 µM (displacement of [3H]-LSD) turned out to be 73.2%.

`CC(=NNC(=N)N)c1c(-c2ccccc2)n(CCc2ccccc2)c2ccccc12` [Example 78, 2-{[1-(2-Phenethyl)-2-phenyl-1H-indol-3-yl]ethylidene}hydrazine-carboximidamide]: the “% Inhibition” value (displacement of [3H]-LSD) came out at 84.2%.

For the molecule `Cn1c(-c2ccccc2)c(C(=NNC(=N)N)C2CCCCC2)c2ccccc21` [Example 79, 2-[cyclohexyl-(1-methyl-2-phenyl-1H-indol-3-yl)-methylene]hydrazinecarboximidamide], the inhibition at 1 µM (displacement of [3H]-LSD) was determined as 31.3%.

As to `N=C(N)NN=C(c1c(-c2ccccc2)n(-c2ccccc2)c2ccccc12)C1CCCCC1` [Example 80, 2-[cyclohexyl-(1,2-diphenyl-1H-indol-3-yl)-methylene]hydrazinecarboximidamide], the inhibition at 1 µM (displacement of [3H]-LSD) is 8.7%.

`CC(C)C(=NNC(=N)N)c1c(-c2ccccc2)n(C)c2ccccc12` [Example 81, 2-[1-(1-methyl-2-phenyl-1H-indol-3-yl)-2-methyl-propylidene]hydrazinecarboximidamide] came in with an inhibition at 1 µM (displacement of [3H]-LSD) of 43.2%.

Molecule `CC(C)C(=NNC(=N)N)c1c(-c2ccccc2)n(-c2ccccc2)c2ccccc12` [Example 82, 2-[1-(1,2-diphenyl-1H-indol-3-yl)-2-methyl-propylidene]hydrazinecarboximidamide] showed an inhibition at 1 µM (displacement of [3H]-LSD) of 21.5%.

On to `Cn1c(-c2ccccc2)c(C(Cc2ccccc2)=NNC(=N)N)c2ccccc21` [Example 83, 2-[1-(1-methyl-2-phenyl-1H-indol-3-yl)-2-phenyl-ethylidene]hydrazinecarboximidamide], for which the inhibition at 1 µM (displacement of [3H]-LSD) was found to be 31%.

On to `N=C(N)NN=C(Cc1ccccc1)c1c(-c2ccccc2)n(-c2ccccc2)c2ccccc12` [Example 84, 2-[1-(1,2-diphenyl-1H-indol-3-yl)-2-phenyl-ethylidene]hydrazinecarboximidamide], for which the inhibition at 1 µM (displacement of [3H]-LSD) amounted to 22.9%.

The term Ki denotes the dissociation constant of the complex between target and ligand, obtained from inhibition or displacement. As for `CC(=NNC(=N)N)c1c(-c2ccccc2)n(C)c2ccccc12` [Example 86, 2-[1-(1-methyl-2-phenyl-1H-indol-3-yl)-ethylidene]hydrazinecarboximidamide], the Ki turned out to be 19 nM. The molecule also returned an inhibition at 1 µM (displacement of [3H]-LSD) of 99.4%.

Take `CC(=NNC(=N)N)c1c(-c2ccccc2)n(-c2ccccc2)c2ccccc12` [Example 87, 2-[1-(1,2-diphenyl-1H-indol-3-yl)-ethylidene]hydrazinecarboximidamide]: the inhibition at 1 µM (displacement of [3H]-LSD) was found to be 31.3%.

`Cn1c(-c2ccccc2)c(C=NNC(=N)N)c2ccccc21` [Example 89, 2-[(1-methyl-2-phenyl-1H-indol-3-yl)-methylene]hydrazinecarboximidamide] displayed an inhibition at 1 µM (displacement of [3H]-LSD) of 70.6%.

Take `CN(N=Cc1c(-c2ccccc2)n(C)c2ccccc12)C1=NCCN1` [Example 90, N-(4,5-dihydro-1H-imidazol-2-yl)-N′-[(1-methyl-2-phenyl-1H-indol-3-yl)-methylene]-N-methylhydrazine]: the Ki was 11 nM. Besides, at 1 µM the inhibition (displacement of [3H]-LSD) was 99.9%.

Where the note is “displacement of [3H]-LSD”, `N=C(N)NN=Cc1c(-c2ccccc2)n(-c2ccccc2)c2ccccc12` [Example 91, 2-[(1,2-diphenyl-1H-indol-3-yl)-methylene]hydrazinecarboximidamide] displayed an inhibition at 1 µM of 24%.

`CN(N=Cc1c(-c2ccccc2)n(-c2ccccc2)c2ccccc12)C1=NCCN1` [Example 92, N-(4,5-dihydro-1H-imidazol-2-yl)-N′-[(1,2-diphenyl-1H-indol-3-yl)-methylene]-N-methylhydrazine]: under “displacement of [3H]-LSD”, the inhibition at 1 µM is 17.8%.

As for `CC(=NNC(=N)N)c1c(-c2ccc(Cl)cc2)n(Cc2ccccc2)c2ccccc12` [Example 93, 2-{1-[1-benzyl-2-(4-chloro-phenyl)-1H-indol-3-yl]-ethylidene}hydrazinecarboximidamide], at 1 µM the inhibition (displacement of [3H]-LSD) was 22.3%.

Turning to `N=C(N)NN=Cc1c(-c2ccc(Cl)cc2)n(Cc2ccccc2)c2ccccc12` [Example 94, 2-{[1-benzyl-2-(4-chloro-phenyl)-1H-indol-3-yl]-methylene}hydrazinecarboximidamide], at 1 µM the inhibition (displacement of [3H]-LSD) was 19.7%.

As for `CN(N=Cc1c(-c2ccc(Cl)cc2)n(Cc2ccccc2)c2ccccc12)C1=NCCN1` [Example 95, N-{[1-benzyl-2-(4-chloro-phenyl)-1H-indol-3-yl]-methylene}-N′-(4,5-dihydro-1H-imidazol-2-yl)-N-methylhydrazine], under “displacement of [3H]-LSD”, the “% Inhibition” value was found to be 20.0%.

In the case of `N=C(N)NN=Cc1c(-c2ccc(Cl)cc2)n(Cc2ccccc2Cl)c2ccccc12` [Example 96, 2-{[1-(2-chloro-benzyl)-2-(4-chloro-phenyl)-1H-indol-3-yl]-methylene}hydrazinecarboximidamide], the inhibition at 1 µM (displacement of [3H]-LSD) came to 15.6%.

`CN(N=Cc1c(-c2ccc(Cl)cc2)n(Cc2ccccc2Cl)c2ccccc12)C1=NCCN1` [Example 97, N-{[1-(2-chloro-benzyl)-2-(4-chloro-phenyl)-1H-indol-3-yl]-methylene}-N′-(4,5-dihydro-1H-imidazol-2-yl)-N-methylhydrazine]: for the setting “displacement of [3H]-LSD”, the “% Inhibition” value is listed as 0.4%.

In the case of `Cc1ccc(Cn2c(-c3ccc(Cl)cc3)c(C=NNC(=N)N)c3ccccc32)cc1` [Example 98, 2-{[2-(4-chloro-phenyl)-1-(4-methyl-benzyl)-1H-indol-3-yl]-methylene}hydrazinecarboximidamide], where the note is “displacement of [3H]-LSD”, the inhibition at 1 µM was found to be 21.1%.

As to `Cc1ccc(Cn2c(-c3ccc(Cl)cc3)c(C=NN(C)C3=NCCN3)c3ccccc32)cc1` [Example 99, N-{[2-(4-chloro-phenyl)-1-(4-methyl-benzyl)-1H-indol-3-yl]-methylene}-N′-(4,5-dihydro-1H-imidazol-2-yl)-N-methylhydrazine], the “% Inhibition” value (displacement of [3H]-LSD) worked out at 5.7%.

The molecule `CC(=NNC(=N)N)c1c(-c2ccc(Cl)cc2)n(Cc2csc(C)n2)c2ccccc12` [Example 100, 2-(1-{2-(4-chlorophenyl)-1-[(2-methyl-1,3-thiazol-4-yl)methyl]-1H-indol-3-yl}ethylidene)-1hydrazinecarboximidamide] gave an inhibition at 1 µM (displacement of [3H]-LSD) of 31.5%.

As to `Cc1nc(Cn2c(-c3ccc(Cl)cc3)c(C=NNC(=N)N)c3ccccc32)cs1` [Example 101, 2-({2-(4-chlorophenyl)-1-[(2-methyl-1,3-thiazol-4-yl)methyl]-1H-indol-3-yl}methylidene)-1hydrazinecarboximidamide], testing at 1 µM (displacement of [3H]-LSD) gave an inhibition of 24%.
